Blank lines part the entries; values can stand above or below the compound they belong to.
Assays:
[1] = biological target: Epidermal growth factor receptor (Homo sapiens, UniProt P00533); assay: Inhibition of wild type EGFR (unknown origin) preincubated for 5 mins followed by substrate and ATP addition and further incubated for 30 mins by HTRF assay
[2] = biological target: Epidermal growth factor receptor (Homo sapiens, UniProt P00533, T790M)
[3] = Oral bioavailability in mouse at 10 mg/kg; type: ADME, organism-based; conditions: in vivo
BaF3 [4] = assay: Antitumor activity against mouse BaF3 cells expressing EGFR deletion19/T790M/C797S triple mutant implanted in CDX BALB/c nude mouse model assessed as reduction in tumor volume at 40 mg/kg, po relative to control; type: functional; design: scale not given: the % may be the effect or the level left
BaF3 [5] = assay: Antitumor activity against mouse BaF3 cells expressing EGFR deletion19/T790M/C797S triple mutant implanted in […] BALB/c nude mouse model assessed as reduction in tumor volume at 40 mg/kg, po relative to control; type: functional; design: scale not given: the % may be the effect or the level left
[6] = system: Protein cereblon/Epidermal growth factor receptor (Homo sapiens), P00533+Q96SW2 [L858R,T790M]; assay: Protac activity at CRBN/EGFR L858R/T790M double mutant in mouse BaF3 cells assessed as induction of protein degradation at 0.1 uM measured after 24 hrs by Western blot analysis relative to control; type: cell-based
Protein cereblon/Epidermal growth factor receptor (Homo sapiens), P00533+Q96SW2 [L858R,T790M], sequence (P00533 whole entry T790M/L858R): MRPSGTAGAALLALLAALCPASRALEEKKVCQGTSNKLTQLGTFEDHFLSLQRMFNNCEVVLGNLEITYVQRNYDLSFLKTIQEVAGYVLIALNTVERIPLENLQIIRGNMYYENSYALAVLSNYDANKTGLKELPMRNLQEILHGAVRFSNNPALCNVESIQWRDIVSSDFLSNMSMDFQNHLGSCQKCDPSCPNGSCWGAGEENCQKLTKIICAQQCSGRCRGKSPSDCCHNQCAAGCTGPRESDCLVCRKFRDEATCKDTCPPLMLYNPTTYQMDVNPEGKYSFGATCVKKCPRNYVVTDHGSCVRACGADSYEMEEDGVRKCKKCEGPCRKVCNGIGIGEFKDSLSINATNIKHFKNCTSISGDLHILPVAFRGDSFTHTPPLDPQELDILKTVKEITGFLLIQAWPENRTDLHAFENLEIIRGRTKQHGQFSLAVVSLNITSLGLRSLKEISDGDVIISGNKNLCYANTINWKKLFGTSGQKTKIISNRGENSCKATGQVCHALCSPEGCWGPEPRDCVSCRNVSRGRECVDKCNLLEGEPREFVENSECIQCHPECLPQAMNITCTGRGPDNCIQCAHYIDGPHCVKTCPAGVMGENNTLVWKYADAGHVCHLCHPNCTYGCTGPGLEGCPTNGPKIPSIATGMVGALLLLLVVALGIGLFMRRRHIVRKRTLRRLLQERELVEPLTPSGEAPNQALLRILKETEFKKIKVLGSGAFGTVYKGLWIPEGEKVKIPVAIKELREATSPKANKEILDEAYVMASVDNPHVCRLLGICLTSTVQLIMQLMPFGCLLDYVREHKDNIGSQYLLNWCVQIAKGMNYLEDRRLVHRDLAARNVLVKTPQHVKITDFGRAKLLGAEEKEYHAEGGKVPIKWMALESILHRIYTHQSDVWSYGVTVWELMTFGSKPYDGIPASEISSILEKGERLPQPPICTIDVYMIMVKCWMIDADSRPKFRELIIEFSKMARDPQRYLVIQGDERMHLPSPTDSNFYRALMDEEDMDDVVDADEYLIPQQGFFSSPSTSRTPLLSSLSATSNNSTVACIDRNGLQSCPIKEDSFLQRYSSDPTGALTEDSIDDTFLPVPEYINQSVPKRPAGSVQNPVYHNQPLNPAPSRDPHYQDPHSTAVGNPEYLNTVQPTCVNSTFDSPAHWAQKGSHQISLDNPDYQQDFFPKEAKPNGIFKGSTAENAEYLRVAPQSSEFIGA
Protein cereblon/Epidermal growth factor receptor (Homo sapiens), P00533+Q96SW2 [L858R,T790M], sequence (Q96SW2 whole entry partner): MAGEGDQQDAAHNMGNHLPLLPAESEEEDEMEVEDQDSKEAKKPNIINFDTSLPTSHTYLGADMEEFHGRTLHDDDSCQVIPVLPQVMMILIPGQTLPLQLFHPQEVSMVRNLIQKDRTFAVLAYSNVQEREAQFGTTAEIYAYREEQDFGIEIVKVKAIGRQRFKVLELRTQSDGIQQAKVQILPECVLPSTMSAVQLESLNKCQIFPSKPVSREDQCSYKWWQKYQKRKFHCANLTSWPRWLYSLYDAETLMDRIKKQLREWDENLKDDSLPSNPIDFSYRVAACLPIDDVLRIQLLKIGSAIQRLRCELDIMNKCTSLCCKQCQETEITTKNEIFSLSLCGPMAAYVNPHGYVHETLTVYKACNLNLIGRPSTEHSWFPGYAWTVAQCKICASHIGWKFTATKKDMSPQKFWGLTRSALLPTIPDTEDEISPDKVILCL

[7] = biological target: T1, von Hippel-Lindau disease tumor suppressor/Epidermal growth factor receptor (Homo sapiens, UniProt P00533+P40337); assay: Protac activity at VHL/EGFR deletion19 mutant in human HCC827 cells assessed as induction of protein degradation; type: cell-based
T1 sequence (P00533 25-1210 limits assumed, stated change not applied): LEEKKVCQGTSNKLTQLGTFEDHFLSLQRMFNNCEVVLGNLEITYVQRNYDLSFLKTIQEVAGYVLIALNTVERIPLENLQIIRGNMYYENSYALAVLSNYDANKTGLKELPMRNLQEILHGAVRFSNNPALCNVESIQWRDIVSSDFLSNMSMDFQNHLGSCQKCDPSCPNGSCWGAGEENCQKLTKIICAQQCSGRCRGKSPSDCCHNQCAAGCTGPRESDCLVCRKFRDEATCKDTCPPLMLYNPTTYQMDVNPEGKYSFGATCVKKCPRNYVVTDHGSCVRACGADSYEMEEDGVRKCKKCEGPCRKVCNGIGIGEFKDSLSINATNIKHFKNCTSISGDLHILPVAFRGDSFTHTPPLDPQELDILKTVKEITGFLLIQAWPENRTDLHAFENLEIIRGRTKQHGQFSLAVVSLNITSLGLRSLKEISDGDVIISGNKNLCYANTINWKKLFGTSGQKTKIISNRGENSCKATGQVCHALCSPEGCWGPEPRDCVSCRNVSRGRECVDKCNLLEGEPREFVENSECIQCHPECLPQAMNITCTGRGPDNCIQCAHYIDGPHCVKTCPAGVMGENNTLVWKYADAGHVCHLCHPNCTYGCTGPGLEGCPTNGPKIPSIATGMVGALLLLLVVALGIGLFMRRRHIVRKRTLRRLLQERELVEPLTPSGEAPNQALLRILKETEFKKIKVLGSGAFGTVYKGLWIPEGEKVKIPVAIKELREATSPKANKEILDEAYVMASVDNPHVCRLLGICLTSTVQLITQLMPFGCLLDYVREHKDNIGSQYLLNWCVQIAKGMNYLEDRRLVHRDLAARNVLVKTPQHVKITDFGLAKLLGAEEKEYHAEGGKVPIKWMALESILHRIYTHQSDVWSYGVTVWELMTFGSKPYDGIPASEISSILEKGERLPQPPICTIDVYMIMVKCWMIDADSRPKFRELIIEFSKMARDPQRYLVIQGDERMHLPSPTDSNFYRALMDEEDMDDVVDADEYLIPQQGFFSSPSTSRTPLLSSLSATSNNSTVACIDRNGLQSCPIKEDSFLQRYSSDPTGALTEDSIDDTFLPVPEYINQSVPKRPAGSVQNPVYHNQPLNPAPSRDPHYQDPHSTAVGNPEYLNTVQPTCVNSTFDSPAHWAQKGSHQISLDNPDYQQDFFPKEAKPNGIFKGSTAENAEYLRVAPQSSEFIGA
T1 sequence (P40337 whole entry, stated change not applied): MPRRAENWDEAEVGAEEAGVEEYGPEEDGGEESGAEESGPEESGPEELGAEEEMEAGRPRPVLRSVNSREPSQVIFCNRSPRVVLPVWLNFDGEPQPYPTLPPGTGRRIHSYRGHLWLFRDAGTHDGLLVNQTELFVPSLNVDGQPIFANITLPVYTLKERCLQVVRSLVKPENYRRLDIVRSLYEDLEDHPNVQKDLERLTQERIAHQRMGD

[8] = system: von Hippel-Lindau disease tumor suppressor/Epidermal growth factor receptor (Homo sapiens), P00533+P40337 [UNDEFINED MUTATION]; assay: Protac activity at VHL/EGFR deletion19 mutant in human HCC827 cells assessed as induction of protein degradation by measuring maximal efficacy relative to control; type: cell-based
von Hippel-Lindau disease tumor suppressor/Epidermal growth factor receptor (Homo sapiens), P00533+P40337 [UNDEFINED MUTATION], sequence (P00533 whole entry, looked up, stated change not applied): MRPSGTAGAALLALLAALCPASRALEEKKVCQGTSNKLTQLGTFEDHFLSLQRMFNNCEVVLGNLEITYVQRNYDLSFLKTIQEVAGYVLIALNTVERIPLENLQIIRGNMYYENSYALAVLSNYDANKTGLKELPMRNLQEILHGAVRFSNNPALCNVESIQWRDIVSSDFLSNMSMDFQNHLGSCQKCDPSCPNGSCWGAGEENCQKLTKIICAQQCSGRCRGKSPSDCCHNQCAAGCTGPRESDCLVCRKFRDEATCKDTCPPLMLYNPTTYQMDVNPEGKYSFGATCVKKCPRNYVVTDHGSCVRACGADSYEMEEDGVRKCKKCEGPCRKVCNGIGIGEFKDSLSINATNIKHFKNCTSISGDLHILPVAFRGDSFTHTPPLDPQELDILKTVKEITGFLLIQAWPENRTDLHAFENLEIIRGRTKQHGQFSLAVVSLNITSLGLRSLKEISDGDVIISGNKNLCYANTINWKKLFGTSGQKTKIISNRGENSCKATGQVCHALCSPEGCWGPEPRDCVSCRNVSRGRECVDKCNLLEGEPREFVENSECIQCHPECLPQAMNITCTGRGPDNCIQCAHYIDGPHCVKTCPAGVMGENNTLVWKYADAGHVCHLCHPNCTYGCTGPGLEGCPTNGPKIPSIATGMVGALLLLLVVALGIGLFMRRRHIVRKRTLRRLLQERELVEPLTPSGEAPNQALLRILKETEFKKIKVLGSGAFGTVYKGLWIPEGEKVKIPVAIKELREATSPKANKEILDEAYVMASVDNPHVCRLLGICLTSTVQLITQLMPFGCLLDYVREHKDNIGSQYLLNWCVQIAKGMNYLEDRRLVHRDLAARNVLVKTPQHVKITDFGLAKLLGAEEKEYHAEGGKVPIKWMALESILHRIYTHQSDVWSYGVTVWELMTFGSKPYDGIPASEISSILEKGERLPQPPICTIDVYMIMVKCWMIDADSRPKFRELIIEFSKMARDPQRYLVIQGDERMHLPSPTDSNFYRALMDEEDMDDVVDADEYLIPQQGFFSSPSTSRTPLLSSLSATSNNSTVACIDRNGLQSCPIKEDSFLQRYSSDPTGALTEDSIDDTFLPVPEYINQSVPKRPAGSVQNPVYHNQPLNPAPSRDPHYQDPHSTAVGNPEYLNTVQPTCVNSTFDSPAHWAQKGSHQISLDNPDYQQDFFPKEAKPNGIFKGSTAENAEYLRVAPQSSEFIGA
von Hippel-Lindau disease tumor suppressor/Epidermal growth factor receptor (Homo sapiens), P00533+P40337 [UNDEFINED MUTATION], sequence (P40337 whole entry, looked up, stated change not applied): as the sequence (P40337 whole entry, stated change not applied) above

[9] = biological target: T1, von Hippel-Lindau disease tumor suppressor/Epidermal growth factor receptor; assay: Protac activity at VHL/EGFR deletion19 mutant in human HCC827 cells assessed as induction of protein degradation incubated for 24 hrs by immunoblotting analysis; type: cell-based
[10] = biological target: von Hippel-Lindau disease tumor suppressor/Epidermal growth factor receptor (Homo sapiens, UniProt P00533+P40337, L858R); assay: Protac activity at VHL/EGFR L858R mutant in human NCI-H3255 cells assessed as induction of protein degradation incubated for 24 hrs by immunoblotting analysis; type: cell-based
[11] = system: von Hippel-Lindau disease tumor suppressor/Epidermal growth factor receptor (Homo sapiens), P00533+P40337 [UNDEFINED MUTATION]; assay: Protac activity at VHL/EGFR deletion19 mutant in human HCC827 cells assessed as induction of protein degradation by measuring maximal efficacy incubated for 24 hrs by immunoblotting analysis relative to control; type: cell-based
[12] = system: von Hippel-Lindau disease tumor suppressor/Epidermal growth factor receptor (Homo sapiens), P00533+P40337 [L858R]; assay: Protac activity at VHL/EGFR L858R mutant in human NCI-H3255 cells assessed as induction of protein degradation by measuring maximal efficacy incubated for 24 hrs by immunoblotting analysis relative to control; type: cell-based
[13] = biological target: T2, Protein cereblon/Epidermal growth factor receptor (Homo sapiens, UniProt P00533+Q96SW2); assay: Protac activity at CRBN/wild type EGFR in human A549 cells assessed as induction of EGFR degradation at 100 nM measured after 72 hrs by Western blot analysis relative to control; type: cell-based
[14] = biological target: T2, Protein cereblon/Epidermal growth factor receptor; assay: Protac activity at CRBN/wild type EGFR in human A549 cells assessed as induction of EGFR degradation incubated for 48 hrs by Western blot analysis; type: cell-based

IC50 [1]: 0.1 µM
IC50 [2]: 4.02 µM
SMILES: CN1C(=O)C(C(=O)NN)N(C)c2ccccc21 (centres undefined)

bioavailability [3]: 62.8%
SMILES: COc1cc(N2CCC(N3CCN(CCC#Cc4cccc5c4CN(C4CCC(=O)NC4=O)C5=O)CC3)CC2)ccc1Nc1ncc(Cl)c(Nc2ccccc2P(C)(C)=O)n1 (centres undefined)
Activity (BaF3 [4]): 84%
Activity (BaF3 [5]): 67%

SMILES: O=C1CCC(N2C(=O)c3cccc(NCCOCCOCCOCCN4CCN(c5ccc(-c6ccc7c(c6)C(=O)N(C(C(=O)Nc6nccs6)c6ccccc6)C7)cn5)CC4)c3C2=O)C(=O)N1 (centres undefined)
Emax [6]: 56%

SMILES: Cc1ncsc1-c1ccc(CNC(=O)[C@@H]2C[C@@H](O)CN2C[C@@H](NC(=O)CCCCCCCCCCn2cc(COc3cc4ncnc(Nc5ccc(F)c(Cl)c5)c4cc3NC(=O)/C=C/CN3CCCCC3)nn2)C(C)(C)C)cc1
EC50 [7]: 0.00357 µM
Emax [8]: 91%

SMILES: COc1cc2ncnc(Nc3ccc(F)c(Cl)c3)c2cc1OCCCCCOCCOCCC(=O)N[C@H](C(=O)N1C[C@H](O)C[C@H]1C(=O)NCc1ccc(-c2scnc2C)cc1)C(C)(C)C
EC50 [9]: 0.0117 µM
EC50 [10]: 0.0223 µM
Emax [11]: 98.9%
Emax [12]: 96.6%

Emax [13]: 96%
EC50 [14]: 0.0329 µM
SMILES: Cn1c(=O)c(C(=O)NNCCOCCOCC(=O)Nc2cccc3c2C(=O)N(C2CCC(=O)NC2=O)C3=O)nc2ccccc21 (centres undefined)

Source: ChEMBL document CHEMBL5316348, “Targeting the Epidermal Growth Factor Receptor with Molecular Degraders: State-of-the-Art and Future Opportunities” (J Med Chem, 2023)
